Columns and labels:
ABCG2 = target: T1, ABCG2 (Homo sapiens, UniProt Q9UNQ0); assay: biochemical
T1 sequence (Q9UNQ0 1-655): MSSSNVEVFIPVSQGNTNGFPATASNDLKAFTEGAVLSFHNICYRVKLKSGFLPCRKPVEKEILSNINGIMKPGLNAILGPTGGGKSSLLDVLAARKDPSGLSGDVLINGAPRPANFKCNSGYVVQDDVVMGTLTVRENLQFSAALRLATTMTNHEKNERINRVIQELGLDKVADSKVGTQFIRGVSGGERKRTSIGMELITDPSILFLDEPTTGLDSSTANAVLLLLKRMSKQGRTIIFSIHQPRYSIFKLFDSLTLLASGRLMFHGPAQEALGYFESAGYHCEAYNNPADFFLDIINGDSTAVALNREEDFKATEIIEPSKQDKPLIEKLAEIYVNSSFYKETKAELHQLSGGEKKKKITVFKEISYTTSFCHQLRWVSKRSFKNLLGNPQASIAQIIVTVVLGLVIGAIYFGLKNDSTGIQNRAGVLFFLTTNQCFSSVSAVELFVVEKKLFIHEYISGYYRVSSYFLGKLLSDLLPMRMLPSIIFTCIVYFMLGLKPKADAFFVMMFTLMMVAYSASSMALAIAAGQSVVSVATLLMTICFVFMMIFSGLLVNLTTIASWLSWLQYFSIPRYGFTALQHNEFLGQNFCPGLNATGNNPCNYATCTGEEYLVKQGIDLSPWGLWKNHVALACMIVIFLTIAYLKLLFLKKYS

ABCB1 = target: T2, ABCB1 (Homo sapiens, UniProt P08183); assay: stimulation of vanadate-sensitive ATPase activity in membrane vesicles (endpoint Pi assay); also inhibits calcein-AM efflux in MDR19-HEK293 and KB-V-1 cells; assay type: biochemical
T2 construct: membrane vesicles from High-Five insect cells infected with recombinant baculovirus containing ABCB1
T2 sequence (P08183 whole entry): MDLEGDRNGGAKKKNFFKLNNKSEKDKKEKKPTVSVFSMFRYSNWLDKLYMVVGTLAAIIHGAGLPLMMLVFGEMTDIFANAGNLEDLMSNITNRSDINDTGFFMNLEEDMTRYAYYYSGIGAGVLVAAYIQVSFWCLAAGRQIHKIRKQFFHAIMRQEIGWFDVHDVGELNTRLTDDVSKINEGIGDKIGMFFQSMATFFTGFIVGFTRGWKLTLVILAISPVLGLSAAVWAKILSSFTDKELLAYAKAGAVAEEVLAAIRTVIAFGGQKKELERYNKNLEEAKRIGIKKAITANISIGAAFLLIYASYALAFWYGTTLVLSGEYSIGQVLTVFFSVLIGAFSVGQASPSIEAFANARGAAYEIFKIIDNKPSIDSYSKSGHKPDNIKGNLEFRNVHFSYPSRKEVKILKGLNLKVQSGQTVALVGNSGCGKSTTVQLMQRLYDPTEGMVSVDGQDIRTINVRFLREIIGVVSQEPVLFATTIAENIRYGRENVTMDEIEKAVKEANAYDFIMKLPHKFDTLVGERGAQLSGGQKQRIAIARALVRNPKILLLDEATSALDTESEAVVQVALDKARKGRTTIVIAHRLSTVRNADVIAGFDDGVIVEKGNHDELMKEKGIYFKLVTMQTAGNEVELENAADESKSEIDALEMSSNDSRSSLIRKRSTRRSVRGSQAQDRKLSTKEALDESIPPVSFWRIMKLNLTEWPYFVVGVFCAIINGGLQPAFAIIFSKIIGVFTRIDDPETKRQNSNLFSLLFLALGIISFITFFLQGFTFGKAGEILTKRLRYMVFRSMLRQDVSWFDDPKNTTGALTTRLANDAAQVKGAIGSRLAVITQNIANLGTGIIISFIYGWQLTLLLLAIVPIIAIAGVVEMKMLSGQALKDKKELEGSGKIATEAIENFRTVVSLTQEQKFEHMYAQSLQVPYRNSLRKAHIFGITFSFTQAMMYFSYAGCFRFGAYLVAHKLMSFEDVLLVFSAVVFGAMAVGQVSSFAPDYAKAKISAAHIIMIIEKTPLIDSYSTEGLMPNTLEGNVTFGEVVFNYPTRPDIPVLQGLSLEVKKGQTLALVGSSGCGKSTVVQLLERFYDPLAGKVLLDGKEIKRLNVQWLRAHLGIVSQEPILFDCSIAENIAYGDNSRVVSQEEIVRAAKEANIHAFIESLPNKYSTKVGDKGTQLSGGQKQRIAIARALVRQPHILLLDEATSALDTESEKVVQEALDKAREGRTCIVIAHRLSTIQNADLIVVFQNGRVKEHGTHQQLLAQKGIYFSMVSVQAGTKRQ

Question: With `CC(C)(CNC(=O)c1cccc(-c2noc(C(F)(F)F)n2)c1)c1coc(-c2ccccc2)n1` [TMP195] as the compound, how does the EC50 (ABCG2) read?
Answer: ~0.4 µM

Question: And the EC50 (ABCB1)?
Answer: ~2 µM
